The subject of series [1] is mice. The conditions noted are these: formalin test, active dose of external active reference, cited from earlier work; for Dose (mg / Kg) Early Response: p.o.; for Dose (mg / Kg) Late Response: route not given.
Series [2] has as its target T1, COX-1 (Homo sapiens, UniProt P23219).
T1 construct: endogenous in cells; host or cells: human platelets
The series is described as follows: COX-1 inhibition in human platelets (PGE2 enzyme immunoassay). Format: biochemical. The conditions noted are these: read-out: % COX-1 Inhibition. As for the experimental part: (§1) The COX-1 inhibitory activity of representative compounds of the invention was determined according to previously reported methods. COX-1 activity was assessed in human platelets using 100 µM arachidonic acid as a substrate and preincubation and incubation times of 15 min at 37 °C in HBSS, 15 mM HEPES pH 7.4 . The quantification method used was enzyme immunoassay determination of PGE2 (Chan, C.C. et al. J Pharmacol Exp Ther, 1999, 290, 551-560; Swinney, D.C. et al. J Biol Chem, 1997, 272, 12393-12398; Warner, T.D. et al. Proc Natl Acad Sci U S A, 1999, 96, 7563-7568; Riendeau, D. et al. Can J Physiol Pharmacol, 1997, 75, 1088-1095). COX-2 inhibitory activity was determined in human recombinant insect Sf21 cells according to references (Warner, T.D. et al., Proc Natl Acad Sci, USA. 1999;96(13):7563-7568; Riendeau, D. et al., Can J Physiol Pharmacol, 1997 ;75(9):1088-1095). Briefly, the COX-2 inhibitory activity was assessed on human recombinant insect Sf21 cells using 0.3 µM arachidonic acid as a substrate and preincubation and incubation times of 15 and 5 min, respectively, at 37 °C in 100 mM Tris-HCl, pH 7.7. The quantification method used was enzyme immunoassay determination of PGE2. Table 11. Inhibition of COX-1 and COX-2 at 10 µM

The nature of series [3]: Maximum Tolerated Dose after acute administration. Conditions: mouse, in vivo, po, mice. As for the experimental part: The Maximum Tolerated Dose (MTD) in mice was determined for selected compounds. The protocol of the studies was in accordance with the standard guidelines for drug development: • (htp://dtp.nci.nih.gov/branches/btb/acute tox.html). Table 10. Maximum Tolerated Doses in mice after acute i.p. administration

Series [4] deals with T2, 5-LO (Homo sapiens, UniProt P09917).
T2 construct: host or cells: Sf9 insect cells
T2 sequence (P09917 1-674): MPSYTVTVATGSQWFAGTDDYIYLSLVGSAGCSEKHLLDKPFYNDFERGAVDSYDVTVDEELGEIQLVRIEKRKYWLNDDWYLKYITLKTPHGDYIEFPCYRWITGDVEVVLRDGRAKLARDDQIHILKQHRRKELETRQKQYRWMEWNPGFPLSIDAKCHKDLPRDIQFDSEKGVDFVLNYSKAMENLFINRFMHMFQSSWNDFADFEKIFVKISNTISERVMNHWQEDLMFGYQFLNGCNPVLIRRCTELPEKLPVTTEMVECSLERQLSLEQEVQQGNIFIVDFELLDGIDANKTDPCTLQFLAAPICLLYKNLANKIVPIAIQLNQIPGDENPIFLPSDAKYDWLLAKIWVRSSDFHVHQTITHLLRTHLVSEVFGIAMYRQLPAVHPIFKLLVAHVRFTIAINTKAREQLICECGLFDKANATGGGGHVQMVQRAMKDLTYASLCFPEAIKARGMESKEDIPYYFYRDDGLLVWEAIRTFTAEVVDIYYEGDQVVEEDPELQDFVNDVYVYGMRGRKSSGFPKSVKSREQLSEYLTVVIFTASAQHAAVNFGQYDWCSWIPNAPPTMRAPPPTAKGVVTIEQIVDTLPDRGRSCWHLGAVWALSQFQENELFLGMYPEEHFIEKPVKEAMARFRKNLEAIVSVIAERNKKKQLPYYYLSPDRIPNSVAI
The experiment in a line: 5-Lipoxygenase inhibition (LTB4 enzyme immunoassay). It is filed as biochemical. On the procedure:
The 5-LO-inhibitory activity of compounds of the invention was determined using previously reported assays. Briefly, lipoxygenase activity was evaluated in human recombinant insect Sf9 cells using 3µM arachidonic acid as a substrate with a preincubation and incubation times of 15 and 5 min respectively at 25°C in a 50 mM Tris-HCl, pH 7.4, 2 mM CaCl2, 1 mM ATP. The quantification method used was enzyme immunoassay determination of LTB4 and the significance criteria were established with a response equal or different of the maximum stimulation or inhibition (Noguchi, M. et al., Eur J Biochem, 1994, 222(2), 285-292; Percival, M.D. et al., Eur J Biochem, 1992, 210(1), 109-117).

In series [5] the target is T3, COX-2 (Homo sapiens, UniProt P35354).
T3 construct: host or cells: Sf21 insect cells
T3 sequence (P35354 18-604): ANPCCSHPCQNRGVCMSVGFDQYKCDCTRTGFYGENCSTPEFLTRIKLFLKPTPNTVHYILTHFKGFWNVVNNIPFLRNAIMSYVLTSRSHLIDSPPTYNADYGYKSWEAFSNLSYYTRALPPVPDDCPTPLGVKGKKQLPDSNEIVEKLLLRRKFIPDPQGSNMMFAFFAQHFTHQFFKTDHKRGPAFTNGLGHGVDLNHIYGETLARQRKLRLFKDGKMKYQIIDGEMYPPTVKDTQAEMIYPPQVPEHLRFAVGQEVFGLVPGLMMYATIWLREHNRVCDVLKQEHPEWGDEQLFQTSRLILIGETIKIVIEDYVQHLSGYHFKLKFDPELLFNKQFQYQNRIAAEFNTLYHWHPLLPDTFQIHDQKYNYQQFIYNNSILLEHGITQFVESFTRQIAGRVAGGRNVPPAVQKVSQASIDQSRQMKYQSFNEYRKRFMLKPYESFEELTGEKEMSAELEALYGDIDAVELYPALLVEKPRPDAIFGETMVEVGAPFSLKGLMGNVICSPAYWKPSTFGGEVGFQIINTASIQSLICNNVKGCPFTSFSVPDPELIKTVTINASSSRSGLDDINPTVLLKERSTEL
The experiment in a line: COX-2 inhibition (PGE2 enzyme immunoassay). Format: biochemical. The conditions noted are these: read-out: % COX-2 inhibition. On the procedure: as §1

Series [6] can be described thus: log D octanol/water distribution coefficient. It is filed as physicochemical. From the text: Lipophilicity has been correlated to various drug properties, affecting permeability, absorption, distribution, plasma protein binding, metabolism, elimination, and toxicity. In contrast to honokiol and magnolol, compounds claimed in the invention, and more particularly those wherein the nitrogen atom in the group -O-CH(phenyl)-(CH2)p-NH-R^3 is protonated and the compound further comprises a pharmaceutically acceptable counter-anion present an optimal log Doctanol/water (range 0-3), indicating good aqueous solubility, permeability, oral absorption, and blood-brain barrier penetration. Experimental studies in murine models have confirmed the results.
Absorption, distribution and metabolism studies in vitro with selected examples were performed in order to determine pharmacokinetic parameters such as permeability (or absorption constant), intrinsic clearance (or metabolic clearance), and bioavailability. Physicochemical properties such as water solubility, pKa, log P, and log Doctanol/water, and in vitro experimental studies such as permeability in Caco2 cells, and protein binding in the mouse, stability in murine microsomes, chemical stability at different pH and stability in plasma were evaluated for the pharmacokinetic prediction in mice.

For series [7], the system named is tumor liver HepG2. The series is described as follows: Tumor cell proliferation assay (alamarBlue). Format: cell-based. The conditions noted are these: Homo sapiens, HepG2. On the procedure:
(§2) Changes in cell proliferation were detected based on the ability of viable cells to cause alamarBlue® to change its oxidized (non-fluorescent, blue) to a reduced (fluorescent, red) form. The alamarBlue® reaction allows the quantification of cell proliferation and examination of the metabolic activity of viable cells. Test substances were examined for activity on the proliferation of human or murine tumor cell lines at assay concentrations from 0.01 to 100 µM.

The test system of series [8] is tumor brain U-87 MG. The experiment in a line: Tumor cell proliferation assay (alamarBlue). Format: cell-based. Conditions: Homo sapiens, U-87 MG. On the procedure:
as §2
In general terms: Resazurin is reduced to fluorescent resorufin, in cell work by metabolically active cells.

Series [9] has as its system tumor ovary OVCAR-3. The experiment in a line: Tumor cell proliferation assay (alamarBlue). It is filed as cell-based. Conditions: Homo sapiens, OVCAR-3. On the procedure: as §2
In series [10] the test system is tumor lung A549. The series is described as follows: Tumor cell proliferation assay (alamarBlue). Format: cell-based. The conditions noted are these: Homo sapiens, A549. On the procedure: as §2
The test system of series [11] is tumor prostate LNCaP-FGC. The series is described as follows: Tumor cell proliferation assay (alamarBlue). Format: cell-based. Conditions: Homo sapiens. As for the experimental part:
as §2

The test system of series [12] is tumor leukaemia K562. The experiment in a line: Tumor cell proliferation assay (alamarBlue). It is filed as cell-based. The conditions noted are these: Homo sapiens, K562. As for the experimental part: as §2
Series [13] has as its system tumor colon HCT-116. The experiment in a line: Tumor cell proliferation assay (alamarBlue). Format: cell-based. The conditions noted are these: Homo sapiens, HCT-116. On the procedure:
as §2

Series [14] deals with T4, EGFR (Homo sapiens, UniProt P00533).
T4 construct: EGF receptor tyrosin-protein kinase activity was assessed in human A431 cells; endogenous in cells; host or cells: human A431 cells
The experiment in a line: EGF receptor tyrosine-protein kinase inhibition (ELISA of Poly[Glu:Tyr-P]). It is filed as biochemical. On the procedure:
EGF receptor tyrosin-protein kinase activity was assessed in human A431 cells using as a substrate Poly(Glu:Tyr) at 10 µg/ml with a preincubation and incubation times of 15 and 60 min, respectively, at 25°C respectively in 50 mM HEPES pH 7.4, 20 mM MgCl2 and 0.2 mM Na3VO4. An ELISA quantification method of Poly[Glu:Tyr-P] was employed (Cheng, K. and Koland, J.G. J Biol Chem, 1996, 271, 311-318). Table 5. Inhibition of EGFR at 10 µM

The subject of series [15] is tumor melanoma B16-FO. The series is described as follows: Tumor cell proliferation assay (alamarBlue). It is filed as cell-based, murine. The conditions noted are these: Mus musculus. As for the experimental part: as §2
Series [16] deals with mice. The series is described as follows: Formalin test (antinociceptive activity). It is filed as in vivo. Conditions: formalin test, dose 10 mg/Kg i.p. On the procedure:
The chemical irritant formalin test is used as a chronic pain model in animals. The s.c. administration of formalin to the paw of a mouse produces a biphasic nociceptive behavioral response, an early response (0-5 min after injection) and a late response (20-30 min after injection) (Hunskaar, S., Fasmer, O.B., Hole, K. Formalin test in mice, a useful technique for evaluating mild analgesics. J Neurosci Methods, 1985 ;14(1):69-76).
Aspirine and paracetamol are included as external active references in early and late response. Table 12. Early and late response inhibition in the formalin test.

Where [17] appears, read: 5-LO, at 10 µM, read-out: % Inhibition.

Structures can show the parent of a compound that is named as a salt. Where two headings read alike, the source gives them in different places.

T1 sequence (P23219 24-599): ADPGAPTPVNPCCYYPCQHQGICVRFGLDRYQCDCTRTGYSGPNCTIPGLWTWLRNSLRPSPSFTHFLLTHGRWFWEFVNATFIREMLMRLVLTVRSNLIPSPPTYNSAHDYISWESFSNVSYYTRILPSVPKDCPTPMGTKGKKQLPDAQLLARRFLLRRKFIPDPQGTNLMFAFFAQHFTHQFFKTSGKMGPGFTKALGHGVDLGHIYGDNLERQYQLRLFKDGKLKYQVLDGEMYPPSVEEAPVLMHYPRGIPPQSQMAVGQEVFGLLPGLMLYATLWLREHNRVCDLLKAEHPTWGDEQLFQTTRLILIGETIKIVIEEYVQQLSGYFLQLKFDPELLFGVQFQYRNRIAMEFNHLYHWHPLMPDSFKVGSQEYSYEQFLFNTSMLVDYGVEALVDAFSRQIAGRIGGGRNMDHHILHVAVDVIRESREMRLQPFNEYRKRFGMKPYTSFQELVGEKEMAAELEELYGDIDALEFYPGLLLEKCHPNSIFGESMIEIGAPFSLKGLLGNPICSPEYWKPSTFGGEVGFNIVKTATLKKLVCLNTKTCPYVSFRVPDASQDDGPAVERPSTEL
T4 sequence (P00533 25-1210): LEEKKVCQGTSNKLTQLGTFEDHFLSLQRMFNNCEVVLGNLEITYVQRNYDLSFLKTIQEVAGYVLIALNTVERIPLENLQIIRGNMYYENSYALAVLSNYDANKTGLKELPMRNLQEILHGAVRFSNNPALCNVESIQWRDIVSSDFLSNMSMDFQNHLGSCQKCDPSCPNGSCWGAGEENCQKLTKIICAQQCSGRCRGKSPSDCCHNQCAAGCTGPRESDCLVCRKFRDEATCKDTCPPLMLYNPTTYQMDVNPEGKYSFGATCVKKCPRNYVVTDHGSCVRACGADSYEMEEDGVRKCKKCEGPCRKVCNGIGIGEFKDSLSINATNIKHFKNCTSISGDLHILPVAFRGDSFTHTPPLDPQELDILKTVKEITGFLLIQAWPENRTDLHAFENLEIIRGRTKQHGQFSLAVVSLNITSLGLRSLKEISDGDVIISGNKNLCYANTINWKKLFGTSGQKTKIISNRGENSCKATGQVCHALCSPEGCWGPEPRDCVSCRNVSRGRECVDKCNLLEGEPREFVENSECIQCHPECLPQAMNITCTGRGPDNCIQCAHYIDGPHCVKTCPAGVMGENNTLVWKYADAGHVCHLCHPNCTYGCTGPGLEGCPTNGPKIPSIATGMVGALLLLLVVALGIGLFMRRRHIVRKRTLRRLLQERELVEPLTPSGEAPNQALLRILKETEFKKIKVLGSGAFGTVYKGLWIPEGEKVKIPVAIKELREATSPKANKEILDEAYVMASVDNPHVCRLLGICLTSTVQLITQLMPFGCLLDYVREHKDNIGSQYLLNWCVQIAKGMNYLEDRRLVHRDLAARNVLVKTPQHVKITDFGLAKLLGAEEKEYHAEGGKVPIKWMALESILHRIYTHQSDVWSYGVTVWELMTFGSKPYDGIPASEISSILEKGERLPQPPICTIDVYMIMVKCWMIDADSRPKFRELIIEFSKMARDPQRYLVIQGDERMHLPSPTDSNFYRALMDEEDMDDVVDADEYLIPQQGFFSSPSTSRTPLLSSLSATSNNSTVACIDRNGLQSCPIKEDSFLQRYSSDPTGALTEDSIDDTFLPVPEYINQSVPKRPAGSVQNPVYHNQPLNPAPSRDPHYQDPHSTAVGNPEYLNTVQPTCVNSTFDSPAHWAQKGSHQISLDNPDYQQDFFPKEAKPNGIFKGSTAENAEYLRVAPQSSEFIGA

Regarding `CC(=O)Oc1ccccc1C(=O)O` [Aspirin], in series [1], the “Dose (mg / Kg) Early Response” value is 200-400 p.o. mg / Kg and the “Dose (mg / Kg) Late Response” value is 300 to 400 mg/kg.

For the molecule `C=CCc1ccc(OC(CCNC)c2ccccc2)c(-c2ccc(O)c(CC=C)c2)c1.Cl` (stereo not drawn) [Example 4, 3,5'-Diallyl-2'-[3-(methylamino)-1-phenylpropoxy]biphenyl-4-ol hydrochloride], the inhibition (commonly the change of the read-out against control, counted positive when it falls) at 10 µM in [2] (at 10 µM, human platelets) is 81%; in [4] (setting [17]), 100%; in series [5] (at 10 µM), 0%. The MTD – broadly, the largest dose that counted as tolerated – in series [3] was found to be 30 mg/kg.

Take `CCCc1ccc(O)c(-c2ccc(OC(CCNC)c3ccccc3)c(CCC)c2)c1` (stereo not drawn) [Example 6, 4'-[3-(Methylamino)-1-phenylpropoxy]-3',5-dipropylbiphenyl-2-ol hydrochloride]: the inhibition at 10 µM in [4] (setting [17]) worked out at 100%.

With `C=CCc1ccc(O)c(-c2cc(CC=C)ccc2O)c1` [Magnolol, reference compound], the inhibition at 10 µM was 21% in series [2], 67% in [4], -26% in [14] and 95% in series [5]. Besides, the logDoctanol/water in series [6] is given as 5.25. Besides, the IC50 (as a rule, the midpoint of a concentration-inhibition curve) in series [7] was found to be 12 µM; in series [8] it was 48 µM; in series [9], 23 µM; in series [10], 19 µM; in [11], 5.1 µM; in series [12], 48 µM. The half-maximal inhibitory concentration (IC50) is 17 µM in series [13] and 28 µM in series [15].

Turning to `CN1CC[C@]23c4c5ccc(O)c4O[C@H]2[C@@H](O)C=C[C@H]3[C@H]1C5` [Morphine, reference compound], in series [16] (early response 0-5 min), the “Early Response” value was “active”. Also, the “Late Response” value in series [16] (late response 20-30 min) was “active”.

`CC(=O)Nc1ccc(O)cc1` [Paracetamol]: in series [1], the “Dose (mg / Kg) Early Response” value is 200-400 p.o. mg / Kg and the “Dose (mg / Kg) Late Response” value was 300 to 400 mg/kg.

The record behind these values is patent publication EP2423181A1, “Multitarget substituted biphenyl diol derivatives” (PROUS INSTITUTE FOR BIOMEDICAL RESEARCH S.A., priority 2010, dated 2012).
